This note sets out measurements from publication PMC4405350, “From Broad-Spectrum Biocides to Quorum Sensing Disruptors and Mussel Repellents: Antifouling Profile of Alkyl Triphenylphosphonium Salts” (PLoS ONE, 2015).

In data set [1] the test system is V. harveyi WT and reporter strains. The data set is described as follows: V. harveyi growth inhibition (OD600). In kind it is cell-based. The following applies: Vibrio harveyi, 18 h, read-out: IC50 Growth. As for the experimental part: (§1) V. harveyi BB120 (wild type strain), BB170 (luxN::Tn5kan), BB886 (luxPQ::Tn5kan) and BB721 (luxO::Tn5lacZ) were acquired from ATCC. To screen the ability of the compounds to interfere with QS, the test products were serially diluted in 100 μl of Autoinducer Bioassay (AB) medium using white, clear-bottom 96-well microtiter plates (Costar 3610) as assay platform. Aerobic bacterial cultures were incubated overnight (30 °C) and diluted 1:50. One-hundred μl of the diluted cultures were dispensed inside each well in the microtiter plate. That gave a starting cell density of 1–2 x 10^7 cfu ml^-1. The plates were covered with a sterile sealing film. Luminescence and OD600 were monitored every 15 min over 18 h with a multimode plate reader (Perkin-Elmer EnSpire) in order to correlate the effects of the products on both the growth and bioluminescence kinetics.
(§2) Compounds 3–5 and 7 were evaluated in V. harveyi WT and three mutant strains: BB886 (luxPQ::Tn5Kan), unable to detect AI-2; BB170 (luxN::Tn5Kan), unable to detect HAI-1; and BB721 (luxO::Tn5lacZ), a LuxO null mutant that produces maximal luminescence per cell constitutively. In order to take into account the cumulative effects of the compounds, bioluminescence and growth were measured simultaneously every 15 min over 18 h (Fig 7). Accordingly, IC50 values for bacterial luminescence and growth were obtained by integration of the areas under the curves for each tested dose (Table 3). For clarity of the graphs, error bars has been omitted in Fig 7 and only the mean curves are shown.

Data set [2] deals with V. harveyi BB886 (luxPQ::Tn5kan). Kind of data set: Quorum sensing bioassay: bioluminescence. The conditions noted are these: Vibrio harveyi, 18 h, read-out: IC50 Luminescence BB886. Format: cell-based. How it is done: as §1, §2
Data set [3] has as its system V. harveyi BB721 (luxO::Tn5lacZ). The data set is described as follows: Quorum sensing bioassay: bioluminescence. Format: cell-based. The following applies: Vibrio harveyi, 18 h, read-out: IC50 Luminescence BB721. As for the experimental part: as §1, §2
Data set [4] relates to V. harveyi BB170 (luxN::Tn5kan). The data set is described as follows: Quorum sensing bioassay: bioluminescence. Format: cell-based. The following applies: Vibrio harveyi, 18 h, read-out: IC50 Luminescence BB170. As for the experimental part: as §1, §2
Data set [5] deals with V. harveyi BB120 (wild type strain). The data set is described as follows: Quorum sensing bioassay: bioluminescence. The following applies: Vibrio harveyi, 18 h, read-out: IC50 Luminescence WT. In kind it is cell-based. How it is done:
as §1, §2

Data set [6] has as its system Mytilus galloprovincialis. The data set is described as follows: Mussel foot retraction assay. Format: in vivo. The conditions noted are these: for Mussels showing foot retraction: 200 μM, highest test concentration; for EC50: Mytilus galloprovincialis, dripped on the foot, read-out: Concentration required to cause foot repulsion in 50% of mussels. How it is done: The mussel Mytilus galloprovincialis was used as target organism. Individuals of 4.0–4.5 cm shell length were collected at intertidal rocky shore of the outer Ría de Vigo (NW Spain). Animals were kept in running seawater aquarium tanks with open-flow design for few days and fed daily by pulses with a mixture of the microalgae (Tahitian Isochrysis aff. galbana) and sediment from the seafloor below the mussel rafts.
Mussel foot retracting assay was conducted following the method reported by Hayashi and Miki. Briefly, subsamples of individuals from the maintenance tanks were transferred to containers filled with 1-μm FSW. After 30 min, the posterior adductor muscle (PAM) was cut to open both animal´s valves as shown in S1A Fig, and byssus filaments were removed from their insertion with the soft tissues. Animals were disposed individually on flexible innocuous plasticine basis as a holder still for 15 min in FSW. The latter disposition avoided animal´s manipulation before and after each test solution was dripped directly on the foot of immobilized animals. FSW was removed and animals exposed their internal cavities in dry conditions for the dripping actions but maintaining a humidity layer over soft tissues.
Initially two different controls (negative and positive) were considered. As negative control, 2.5 μl of DMSO in 0.2-μm FSW was used. […] After the negative control test, the animals were disposed back in 1-μm FSW for 15 min. With regard to the positive control, 1000 ppm of CuSO4 was used. For the latter case, only animals that did react to such positive control were used. After this second control, animals were disposed back in 1-μm FSW, this time for 25 min in order to remove completely any rest of copper. All animals considered for the experiment have accomplished the two controls satisfactorily.
Different concentrations (6.25, 12.5, 25, 50, 100 and 200 μM) of two test compounds, 3 and 16 were used. Stocks of 40 mM for the two compounds under investigation were prepared in DMSO. Posterior dilution actions to get the distinct concentrations desired were prepared with 0.2-μm FSW. Concentrations were tested in ascending order from 6.25 to 200 μM. Animals were kept in 0.2-μm FSW for 15 min at each time interval between sampling with the aim to wash the internal soft tissues. After each removal of seawater, animals were ready to use again.
Eight series of ten animals each were considered for retracting muscle foot analysis and each test compound. Each potential foot-reacting substance was individually dripped on the foot of the mussels (S1B Fig) and the animal’s reactions were noted. […]

The nature of a further data set: in vivo. The conditions noted are these: in vivo. As for the experimental part: All the biological assays were run by triplicate. […] For the active products, serial dilutions were performed to calculate the half-maximal inhibitory concentrations (IC50) or the minimal inhibitory concentrations (MIC). Unless otherwise stated, the test concentrations were 100, 50, 25, 10, 5, 2.5, 1, 0.5 and 0.1 μM. Dose-response curves were adjusted with GraphPad Prism 5 software using a four-parameter non-linear regression model.
Artemia salina cysts (INVE Aquaculture, Ghent, Belgium) were hatched in brackish water (30 ‰ salinity) at 28 °C with aeration and under constant light. Newly hatched instar I nauplii were harvested for bioassays. Tests were conducted in 96-well plates (15±5 nauplii per well, test volume = 200 μl). The number of dead and alive individuals was recorded after 24 h of incubation at 28 °C and 24-hour photoperiod.

`C/C=C/C[P+](c1ccccc1)(c1ccccc1)c1ccccc1` [Compound 3]: the 50% inhibitory concentration (IC50) – broadly, the concentration needed to halve the response being measured – in data set [1] was greater than 500 µM; in data set [2], 265 µM; in data set [3] it was 348 µM; in data set [4], 251 µM; in data set [5], 297 µM. In addition, the “Mussels showing foot retraction” value in data set [6] is recorded as 94–95%. Also, in data set [6], the EC50 worked out at 47 µM.
With `BrCCCC[P+](c1ccccc1)(c1ccccc1)c1ccccc1` [Compound 4], the IC50 in data set [1] is greater than 500 µM; in data set [2], 307 µM; in data set [3] it was greater than 500 µM; in data set [4], 226 µM; in data set [5] it was greater than 500 µM.
Turning to `CCCCN[P+](c1ccccc1)(c1ccccc1)c1ccccc1` [Compound 5], the IC50 in data set [1], in data set [2], in data set [3], in data set [4] and in data set [5] was greater than 500 µM in each case.
Turning to `CCCCC[P+](c1ccccc1)(c1ccccc1)c1ccccc1` [Compound 7], the IC50 was greater than 500 µM in data set [1]; 179 µM in data set [2]; 276 µM in data set [3]; 129 µM in data set [4]; 205 µM in data set [5].
As for `CCCCCCCCCCCCCCCC[P+](c1ccccc1)(c1ccccc1)c1ccccc1` [Compound 16], in data set [6], the “Mussels showing foot retraction” value is given as 94–95% and the EC50 was 34 µM.
Regarding `CCCCCCCCCCCCCCCCCC[P+](c1ccccc1)(c1ccccc1)c1ccccc1` [Compound 17], the LC50 (in general, the concentration that kills 50% of the test population) at 24 h in “in vivo” is less than 0.5 µM.
In the case of `CCCCCCCCCCCCCCCCCCC[P+](c1ccccc1)(c1ccccc1)c1ccccc1` [Compound 18], in the data set “in vivo”, the LC50 at 24 h is less than 0.5 µM.
